Columns and labels:
Test in all cases: Colony formation (clonogenic) assay in methylcellulose after lentiviral IL1RAP shRNA knockdown
Format in all cases: cell-based, human
Details in all cases: p<0.05
OCI-AML3 cells = system: OCI-AML3 cells
Description: (§1) FIG. 18A-18B. IL1RAP knockdown decreases clonogenic potential and leads to increased cell death of AML cells. A) Colony formation assay in semisolid methylcellulose media of AML cells (THP-1, OCI-AML3, HEL, HL-60) infected with control and two IL1RAP-directed shRNAs. Mean and standard deviations are shown. Asterisks indicate statistical significance (p<0.05). B) Analysis of apoptosis/necrosis with Annexin V/DAPI in THP-1 cells infected with control and IL1RAP shRNAs. […] Statistical significance is indicated (* indicate p<0.05).
(§2) For knockdown studies, shRNA template oligonucleotides (Luciferase Control shRNA: 5′-[…]-3′ (SEQ ID NO:3); IL-1RAP shRNA 1: 5′-[…]-3′ (SEQ ID NO:4); IL-1RAP shRNA 2: 5′-[…]-3′) (SEQ ID NO:5) were cloned into the pSIH1-H1-copGFP shRNA vector system (System Biosciences, Mountain View, Calif.). For production of lentiviral particles, lentiviral constructs with packaging vectors were transfected into 293T producer cells using Fugene HD transfection reagent (Roche). Supernatant was harvested after 48 and 72 hours, and concentrated by ultracentrifugation. For knockdown studies, HL60, HEL, OCI-AML3, MOLM-13, THP1 and UT-7 cell lines were transfected with the short-hairpin-containing lentivirus (MOI=10), incubated for 48 or 72 hours. After culture with fresh medium, GFP-positive cells were sorted using a FACS Aria II sorter (BD Biosciences) and used for experiments. Level of knockdown of Il-1RAP was determined by flow cytometry.
(§3) THP1 cells were transduced with these lentiviral shRNAs or with a non-silencing control, and subjected sorted GFP-positive, Annexin V-negative, DAPI-negative cells to clonogenic assays. Knockdown of IL1RAP led to a significant (p<0.05) 94% and 98% inhibition of leukemic colony formation of THP1 cells in comparison to the non-silencing control (FIG. 18A).

HL-60 cells = system: HL-60 cells
Description: as §1, §2, §3

HEL cells = system: HEL cells
Description: as §1, §2, §3

Row | Substance | reduced clonogenicity (OCI-AML3 cells) [%] | reduced clonogenicity (HL-60 cells) [%] | reduced clonogenicity (HEL cells) [%]
1 | shRNA#1: IL1RAP-directed lentiviral shRNA, template 5′-tggccttactctgatctggtattggacta-3′ (SEQ ID NO:4), in pSIH1-H1-copGFP vector (DNA TGGCCTTACTCTGATCTGGTATTGGACTA) | 51.5 | 45 | 69
2 | shRNA#2: IL1RAP-directed lentiviral shRNA, template 5′-cgggcattaattgatttcctactatattc-3′ (SEQ ID NO:5), in pSIH1-H1-copGFP vector (DNA CGGGCATTAATTGATTTCCTACTATATTC) | 62 | 38.5 | 81
